Earlier results as cited in patent US20070250270A1, “Cellular predictive models for toxicities” (Cytokinetics, Inc., priority 2006, published 2007).
Starred links: 1 amine or outer side, 2 acyl side, 3 side chain; linkers in the order of their positions; H or OH if unused. Positions of bridges follow the written chain, without caps; N, C: chain ends. Non-standard residues stand in square brackets, D forms with d. Residues, ends and D or L forms follow the SMILES beside them. Trp(2-yl) = O=C([C@H](Cc1c([*:3])[nH]c2ccccc12)N[*:1])[*:2]; Leu(4R-OH,5-OH) = C[C@](O)(CO)C[C@H](N)C(=O)O; cisHyp = O=C(O)[C@@H]1C[C@H](O)CN1

Legend:
[1] = system: bile flow; conditions: rats
[2] = system: filamentous F actin

C=C1[C@@H](C)[C@H]2[C@H](Cc3ccccc3)NC(=O)[C@]23OC(=O)/C=C/[C@H](O)CCC[C@@H](C)C/C=C/[C@H]3[C@@H]1O [cytochalasin B]
effect on bile flow, resulting in cholestatic injury [1]: prompt arrest of bile flow

C[C@@H]1NC(=O)[C@H](C[C@@](C)(O)CO)NC(=O)[C@@H]2Cc3c([nH]c4ccccc34)SC[C@H](NC(=O)[C@@H]([C@H](C)O)NC1=O)C(=O)N1C[C@@H](O)C[C@H]1C(=O)N[C@@H](C)C(=O)N2 [phalloidin] (cyclo(A[dT]C[cisHyp]A[Trp(2-yl)][Leu(4R-OH,5-OH)]); thioether 3-6)
effect on filamentous F actin around canaliculi and tight junctions [2]: increase in filamentous F actin around canaliculi and tight junctions
